# Laboratory results reported in paper PMC4506373 (Journal of Ginseng Research, 2014).
# Tested on: special ginsenosidase type-I
# Conditions: 0.02 M acetate buffer pH 5.0, 45°C; hydrolysis of 3-O-Glc of Rb2 to C-O
structure (smiles),measurement,value
CC(C)=CCC[C@](C)(O[C@@H]1O[C@H](CO[C@@H]2OC[C@H](O)[C@H](O)[C@H]2O)[C@@H](O)[C@H](O)[C@H]1O)[C@H]1CC[C@]2(C)[C@@H]1[C@H](O)C[C@@H]1[C@@]3(C)CC[C@H](O[C@@H]4O[C@H](CO)[C@@H](O)[C@H](O)[C@H]4O[C@@H]4O[C@H](CO)[C@@H](O)[C@H](O)[C@H]4O)C(C)(C)[C@@H]3CC[C@]12C [Rb2],Km,20.4 ± 2.1 mM
